Measurements: PMC8318231, “Rate-of-Kill (RoK) assays to triage large compound sets for Chagas disease drug discovery: Application to GSK Chagas Box” (PLoS Neglected Tropical Diseases, 2021)

How the values were obtained:
[1] = system: T. cruzi Tulahuen trypomastigotes; assay: T. cruzi trypomastigote assay (Cell Titer-Glo viability, ATP luminescence); format: cell-based, Trypanosoma cruzi; conditions: for Trypomastigotes pIC50 48 hours: 48 hours incubation; for Trypomastigotes pIC50 48 hours / Trypomastigotes pIC50 72 hours: pIC50 = -log10 IC50 in molar units; for Trypomastigotes pIC50 72 hours: 72 hours incubation; for 48 pIC50 / 72 pIC50: trypomastigote assay; for 48 pIC50: 48 h; for 72 pIC50: 72 h
Procedure: T. cruzi Tulahuen trypomastigotes obtained from the supernatants of LLC-MK2 infected cultures in a 225 cm^2 T-Flasks harvested between days 5 and 8 of infection. Trypomastigotes (5 × 10^4 per well) in 50 μl of DMEM/ 2% FBS were dispensed into white 384 plates (Greiner) pre-stamped with 250 nl compound a single-shot final concentration of 5 μM, or in dose response. […] Cell Titer-Glo cell viability solution (Promega) was added to each well (50 μL) incubated at room temperature for 10 min and luminescence read by Envision plate reader (Perkin Elmer). This assay quantifies the amount of ATP present which is directly proportional to the number of metabolically active cells. All data were normalised (100% effect control for no cells and 0% effect control for DMSO). This assay was adapted from MacLean et al., 2018 [22].

[2] = system: TcCYP51; conditions: formerly reported; cited from earlier work

For `CCC1Oc2cc(S(=O)(=O)N(C)CC(=O)N3CCc4ccccc4C3)c(C)cc2NC1=O` (stereo not drawn) [TCMDC-143332], the “Trypomastigotes pIC50 48 hours” value [1] was under 4.3, the “Trypomastigotes pIC50 72 hours” value [1] was under 4.3 and the “48 pIC50” value ([1]; figure 1A) was under 4.3. For the same compound, the “72 pIC50” value ([1]; figure 1A) was under 4.3, the “72 pIC50” value ([1]; figure 1B) was under 4.3 and the “CYP51 pIC50” value [2] was 6.1.
For `Cc1nc(N2CCC(C(=O)N3CCC(O)(c4cccnc4)CC3)CC2)nc2ccc(C(C)C)cc12` [TCMDC-143333], the “Trypomastigotes pIC50 48 hours” value [1] is listed as 4.5, the “Trypomastigotes pIC50 72 hours” value [1] is listed as 4.4 and the “CYP51 pIC50” value [2] is listed as 6.9.
In the case of `CN(Cc1ccc(F)cc1)c1ccc(OCC(=O)N2CCCCC2c2cccnc2)nn1` (stereo not drawn) [TCMDC-143334], the “Trypomastigotes pIC50 48 hours” value [1] is reported as under 4.3, the “Trypomastigotes pIC50 72 hours” value [1] is reported as under 4.3 and the “48 pIC50” value ([1]; figure 1A) is reported as under 4.3. For the same compound, the “72 pIC50” value ([1]; figure 1A) was under 4.3, the “72 pIC50” value ([1]; figure 1B) was under 4.3 and the “CYP51 pIC50” value [2] was 7.3.
In the case of `Cc1ccc(NC(=O)C(C)n2nc([N+](=O)[O-])c(Br)c2C)cc1Cl` (stereo not drawn) [TCMDC-143338], the “Trypomastigotes pIC50 48 hours” value [1] is listed as 5.5, the “Trypomastigotes pIC50 72 hours” value [1] is listed as 5.3 and the “CYP51 pIC50” value [2] is listed as under 4.
In the case of `CN(Cc1nc2ccccc2s1)C(=O)C=Cc1cc2ccccc2o1` [TCMDC-143354], the “Trypomastigotes pIC50 48 hours” value [1] is listed as 4.4, the “Trypomastigotes pIC50 72 hours” value [1] is listed as under 4.3 and the “CYP51 pIC50” value [2] is listed as 6.8.
For `Cc1cccc(NS(=O)(=O)c2cnc3sc(C)cn3c2=O)c1` [TCMDC-143372], the “Trypomastigotes pIC50 48 hours” value [1] was under 4.3, the “Trypomastigotes pIC50 72 hours” value [1] was under 4.3 and the “48 pIC50” value ([1]; figure 1A) was under 4.3. The “72 pIC50” value ([1]; figure 1A) was under 4.3, the “72 pIC50” value ([1]; figure 1B) was under 4.3 and the “CYP51 pIC50” value [2] was under 4.
In the case of `Cc1ccc(CNC2CCN(C[C@@H]3Cn4c(=O)ccc5ccc(=O)n3c54)CC2)cc1F` [TCMDC-143403], the “Trypomastigotes pIC50 48 hours” value [1] is reported as under 4.3, the “Trypomastigotes pIC50 72 hours” value [1] is reported as under 4.3 and the “48 pIC50” value ([1]; figure 1A) is reported as under 4.3. The “72 pIC50” value ([1]; figure 1A) was under 4.3, the “72 pIC50” value ([1]; figure 1B) was under 4.3 and the “CYP51 pIC50” value [2] was under 4.
For `CN(C)c1ccc(-c2cc3nccnc3c(OC[C@H]3CCCNC3)n2)cn1.Cl` [TCMDC-143408], the “Trypomastigotes pIC50 48 hours” value [1] is listed as 4.5, the “Trypomastigotes pIC50 72 hours” value [1] is listed as 5.2 and the “CYP51 pIC50” value [2] is listed as under 4.
With `COc1ccc(-c2ccc3nnc(-c4ccc(O)c(OC)c4)n3c2)cn1` [TCMDC-143413] the “Trypomastigotes pIC50 48 hours” value [1] was under 4.3, the “Trypomastigotes pIC50 72 hours” value [1] was under 4.3 and the “48 pIC50” value ([1]; figure 1A) was under 4.3. The “72 pIC50” value ([1]; figure 1A) was under 4.3, the “72 pIC50” value ([1]; figure 1B) was under 4.3 and the “CYP51 pIC50” value [2] was under 4.
In the case of `CN(C)c1ncc(-c2cncn2CCOc2ccc(Cl)cc2)cn1` [TCMDC-143415], the “Trypomastigotes pIC50 48 hours” value [1] is reported as 4.5, the “Trypomastigotes pIC50 72 hours” value [1] is reported as 4.5 and the “48 pIC50” value ([1]; figure 1A) is reported as 4.5. The “72 pIC50” value ([1]; figure 1A) was 4.5, the “72 pIC50” value ([1]; figure 1B) was 4.5 and the “CYP51 pIC50” value [2] was 7.3.
With `CCC(c1ccc(F)cc1)n1cncc1-c1cnn(C)c1` (stereo not drawn) [TCMDC-143416] the “Trypomastigotes pIC50 48 hours” value [1] was under 4.3, the “Trypomastigotes pIC50 72 hours” value [1] was under 4.3 and the “48 pIC50” value ([1]; figure 1A) was under 4.3. The “72 pIC50” value ([1]; figure 1A) was under 4.3, the “72 pIC50” value ([1]; figure 1B) was under 4.3 and the “CYP51 pIC50” value [2] was 7.1.
In the case of `O=C(Nc1ncc([N+](=O)[O-])s1)C1CC1` [TCMDC-143417], the “Trypomastigotes pIC50 48 hours” value [1] is given as 6.1, the “Trypomastigotes pIC50 72 hours” value [1] is given as 6 and the “CYP51 pIC50” value [2] is given as under 4.
In the case of `Fc1ccccc1N1C[C@H]2CCN(c3cccnc3)C[C@H]2C1.O=C(O)C(F)(F)F` [TCMDC-143422], the “Trypomastigotes pIC50 48 hours” value [1] is given as 4.6, the “Trypomastigotes pIC50 72 hours” value [1] is given as under 4.3 and the “CYP51 pIC50” value [2] is given as 7.2.
With `CC(Cn1ccnc1)NC(=O)C=Cc1ccc(Cl)cc1` (stereo not drawn) [TCMDC-143423] the “Trypomastigotes pIC50 48 hours” value [1] was under 4.3, the “Trypomastigotes pIC50 72 hours” value [1] was under 4.3 and the “48 pIC50” value ([1]; figure 1A) was under 4.3. For the same compound, the “72 pIC50” value ([1]; figure 1A) was under 4.3, the “72 pIC50” value ([1]; figure 1B) was under 4.3 and the “CYP51 pIC50” value [2] was 6.8.
For `CN1CCN(c2nc(-c3ccc(Cl)cc3)c3c(N)n(C)nc3n2)CC1` [TCMDC-143426], the “Trypomastigotes pIC50 48 hours” value [1] was under 4.3, the “Trypomastigotes pIC50 72 hours” value [1] was under 4.3 and the “48 pIC50” value ([1]; figure 1A) was under 4.3. The “72 pIC50” value ([1]; figure 1A) was under 4.3, the “72 pIC50” value ([1]; figure 1B) was under 4.3 and the “CYP51 pIC50” value [2] was under 4.
For `COc1ccc(C)cc1-c1csc(NC(=O)C(C)n2ccnc2)n1` (stereo not drawn) [TCMDC-143430], the “Trypomastigotes pIC50 48 hours” value [1] was under 4.3, the “Trypomastigotes pIC50 72 hours” value [1] was under 4.3 and the “48 pIC50” value ([1]; figure 1A) was under 4.3. For the same compound, the “72 pIC50” value ([1]; figure 1A) was under 4.3, the “72 pIC50” value ([1]; figure 1B) was under 4.3 and the “CYP51 pIC50” value [2] was 7.4.
In the case of `COc1ccc2nc(N(Cc3cccnc3)C(=O)C3CCC3)sc2c1` [TCMDC-143437], the “Trypomastigotes pIC50 48 hours” value [1] is reported as under 4.3, the “Trypomastigotes pIC50 72 hours” value [1] is reported as under 4.3 and the “48 pIC50” value ([1]; figure 1A) is reported as under 4.3. For the same compound, the “72 pIC50” value ([1]; figure 1A) was under 4.3, the “72 pIC50” value ([1]; figure 1B) was under 4.3 and the “CYP51 pIC50” value [2] was 7.2.
In the case of `c1cncc(CN(Cc2ccco2)Cc2cn[nH]c2-c2cccs2)c1` [TCMDC-143440], the “Trypomastigotes pIC50 48 hours” value [1] is listed as 4.4, the “Trypomastigotes pIC50 72 hours” value [1] is listed as under 4.3 and the “CYP51 pIC50” value [2] is listed as 7.1.
